From PMC12091851, “Replacing a Cereblon Ligand by a DDB1 and CUL4 Associated Factor 11 (DCAF11) Recruiter Converts a Selective Histone Deacetylase 6 PROTAC into a Pan‐Degrader” (Chemmedchem, 2025)
Like-named read-outs stand apart in the source and are kept apart here.

How the values were obtained:
[1] = tested on: MM.1S cells; assay: CellTiter-Glo cell viability assay; type: cell-based, human; settings: 72 h; for EC50: Homo sapiens, MM1.S
Description: For this purpose, the dilution series were prepared in 200-fold concentration in DMSO and further diluted to 10-fold concentration in medium. The final DMSO concentration was 0.5%. The toxicity of compounds was determined after 72 h using the CellTiter-Glo 2.0 Cell Viability Assay (Promega, Madison, WI, USA, #G9242) according to the manufacturer´s protocol. Subsequently, the luminescence was measured using a Tecan Spark (Tecan Group AG, Maennedorf, Swiss) and the half maximal effective concentration (EC50) was determined by plotting dose response curves and nonlinear regression with GraphPad Prism (GraphPad Software, San Diego, CA, USA). […] Cellular HDAC Inhibition Assay […] with minor changes. […] The DMSO-stock solutions were used to perform a serial dilution in DMSO. […] 10 µL of the substrate solution was added and incubated for 3 h under cell culture conditions. […] S8

[2] = target: HDAC1 (Homo sapiens, UniProt Q13547); assay: Simple Western immunoassay, HDAC1 levels in MM.1S cell lysates; type: cell-based; design: endogenous in cells; host or cells: MM.1S; settings: MM.1S cells, 10 μM, 24 h
Sequence of HDAC1 (Q13547 whole entry): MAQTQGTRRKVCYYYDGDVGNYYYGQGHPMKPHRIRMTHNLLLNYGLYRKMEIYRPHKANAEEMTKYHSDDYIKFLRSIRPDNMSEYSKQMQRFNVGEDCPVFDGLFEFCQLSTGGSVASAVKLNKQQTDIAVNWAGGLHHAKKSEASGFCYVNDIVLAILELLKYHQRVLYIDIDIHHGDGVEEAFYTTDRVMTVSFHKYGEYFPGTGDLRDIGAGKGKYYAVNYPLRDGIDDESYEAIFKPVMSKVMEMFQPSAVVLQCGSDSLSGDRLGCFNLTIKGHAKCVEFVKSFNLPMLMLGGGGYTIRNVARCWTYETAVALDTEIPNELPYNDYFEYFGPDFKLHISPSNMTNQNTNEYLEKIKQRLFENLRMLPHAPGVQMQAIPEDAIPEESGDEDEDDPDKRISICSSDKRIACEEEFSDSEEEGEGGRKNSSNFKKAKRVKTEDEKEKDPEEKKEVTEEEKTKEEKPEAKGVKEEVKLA
Description: Figure 3 Initial degradation screening of HDAC1 and 6 by DCAF11‐recruiting PROTACs by Simple Western™ immunoassay analysis of MM.1S cell lysates. MM.1S cells were treated with the indicated compound (10 μM) or vehicle (DMSO) for 24 h. […] Bottom: Representative images from a total of n=3 biological replicates, labeled with spacer type; w/o: without spacer.
2. Biological Experiments
No unexpected or unusually high safety hazards were encountered.
The human multiple myeloma cell line MM.1S (CRL-2974) was obtained from American Type Culture Collection (ATCC, Manassas, VA, USA). The semi-adherent cells were cultivated in RPMI 1640 medium (Catalog#21875-034, Gibco, ThermoFisher Scientific Inc., Waltham, MA, USA) supplemented with 10% FBS (PAN Biotech GmbH; Aidenbach, Germany), 100 IU/mL penicil lin, 0.1 mg/mL streptomycin (PAN Biotech GmbH) and 1 mM sodium pyruvate (ThermoFisher Scientific Inc.). […]
(PAN Biotech GmbH). All cells were cultured at 37 °C in a 5% CO2 atmosphere. Incubation times, as part of assay protocols, were performed under these conditions as well. The semi-adherent MM.1S were detached mechanically by using a cell scraper and the adhered […] were trypsinased by trypsin/EDTA (0.05%/0.02% in DPBS, PAN Biotech GmbH) whereas the U-87MG were detached by […]
2.2. Simple Western™ Immunoassay
For the cell lysates, MM.1S (0.5 × 10^6 cells/mL) or U-87MG (0.18 × 10^6 cells/mL) cells were seeded and incubated with the indicated concentration of compound or vehicle (DMSO) for the given time. The adherent cells were cultured for 24 h under cell culture conditions for attachment before treatment. Cell lysis was performed with Cell Extraction Buffer (10 mM Tris, pH 7.4, 100 mM NaCl, 1 mM EDTA, […]
SDS, 0.5% deoxycholate; Catalog# FNN0011, Thermo Fisher Scientific Inc., Waltham, MA, USA) with addition of Halt Protease Inhibitor Cocktail (100×) (Catalog# 78429, Life Technologies GmbH, Carlsbad, CA, USA) and phenylmethanesulfonyl fluoride (Catalog# 10837091001, Sigma-Aldrich, St.
Louis, MO, USA) according to manufacturer´s instructions. Protein content was determined by Pierce™ BCA Protein Assay Kit (Catalog# 23225, Thermo Fisher Scientific Inc.) according to manufacturer´s guidelines. Cell lysates were diluted to a final concentration of 1 mg/mL and denatured according to manufacturer’s guidelines. Anti-HDAC1 (Catalog# 5356S, Cell Signaling Technology, Denver, MA, USA), anti-HDAC6 (Catalog#7558S, Cell Signaling Technology) and anti-GAPDH (Catalog# 2118S, […]
Fluorescence Separation 8x25 Capillary Cartridges (Catalog# SM-FL004-1, Protein Simple, Bio-Techne, Minneapolis, MN, USA) were used for separation and the Anti-Mouse Detection Module (Catalog# DM-002, Protein Simple) was used for detection with addition of 20x Anti-Rabbit HRP […]
Conjugate (Catalog# 043-426, Protein Simple) according to manufacturer´s instructions. The assay was performed with the Jess Simple Western System (catalog# 004-650, Protein Simple), according to manufacturer´s settings. Evaluation and quantification was performed with the compass software (6.2.0, Protein Simple). GraphPad Prism (GraphPad Software, San Diego, CA, USA) was used for normalization, statistical analysis and bar graph creation. Significance testing was performed with a one-way analysis of variance (ANOVA). […]
of each mean compared to a reference mean value. […]
AMC (Catalog# 233691-67-3, BLD pharma) was prepared with and without IGEPAL CA-630 (0.5%, Catalog# J61055, Alfa Aesar). 10 µL of the substrate solution was added and incubated for 3 h under cell culture conditions. The reaction was stopped with 100 µL of stop solution (50 mM Tris-HCl, […]
Trypsin) and incubated for 1.5 h under cell culture conditions. The fluorescence signal was measured by a FLUOstar OPTIMA microplate reader (BMG labtech, Ortenburg, Germany) at excitation of λ = 355 nm and emission of λ = 460 nm. All Compounds were tested in two independent experiments in duplicates and IC50 was determined by nonlinear regression with GraphPad Prim.

[3] = tested on: MM.1S cells; assay: Cell cycle analysis by PI staining and flow cytometry; type: cell-based, human; settings: 10 μM, 48 h
Description: GraphPad Prism (GraphPad Software). […]
Biotech), resuspended in 1 mL EtOH/D PBS (7/3 v/v), and fixed for 30 min at 4 °C. The samples were rehydrated with DPBS and treated with 5 µg /mL RNAse ( Catalog# EN0531 , ThermoFisher Scientific Inc.) for 15 min at room temperature. The staining was performed with 3 µM propidium iodide (in DPBS) for 15 min at room temperature and analyzed by flow cytometry ( Guava easyCyteTM, Luminex, […]
Lakes, NJ, USA), using the Watson Pragmatic algorithm.[6] GraphPad Prism (GraphPad Software) was used for normalization, statistical analysis, and bar graph creation. Significance testing was performed with a one-way analysis of variance (ANOVA). Dunnett’s post-hoc test was employed to obtain […]
Final DMSO concentration was 0.1%.
Staining was performed with
Fluorescence was measured by flow cytometry (Guava® easyCyteTM, Luminex, Austin, Texas). GraphPad Prism (GraphPad Software) was used for normalization, statistical analysis, and bar graph creation. Significance testing was performed with a one-way analysis of variance (ANOVA).
Subsequently, cells were harvested and […]
After 30 minutes of incubation at […]
Dunnett’s post-hoc test was employed

[4] = tested on: MDA-MB-231 cells; assay: Clonogenic growth assay; type: cell-based, human; settings: 10 μM for 48 h, nine days of growth
Description: Figure 9 Clonogenic growth assay of DCAF11‐recruiting PROTACs. MDA‐MB‐231 cells were treated with 10 μM of the respective compound or vehicle (DMSO) for 48 hours. (A) Representative images of crystal violet stained colonies after nine days of growth. (B) Quantification of counted colonies, presented as mean ± standard deviation of three biological replicates, each performed in triplicates. Significance of quantification compared to vehicle: ns=p≥0.05; **=p≤0.01 and ***=p≤0.001. […]
Subsequently, cells were harvested and
plated in 6-well plates at a density of 750 cells per well in triplicates. The cell culture medium was
changed after five days. Nine days after plating, the colonies were carefully washed with 500 µL DPBS
and stained with 500 µL crystal violet solution (0.5% in methanol). After 30 minutes of incubation at
room temperature, the wells were gently rinsed with deionized water. After counting the formed
colonies, GraphPad Prism (GraphPad Software) was used for bar graph creation. Significance testing
was performed with a one-way analysis of variance (ANOVA). Dunnett’s post-hoc test was employed
to obtain significance levels of each mean compared to a reference mean value.

[5] = MM.1S cells, n.e.: no effect (≤25% effect up to 50 μM), read-out: EC50 antiproliferative activity
[6] = MM.1S cells, n.e.: no effect (≤25% effect up to 50 μM)

Row | SMILES | EC50 [1, 5] [µM] | further results
1 | O=C(CCCCCCNC(=O)c1ccc(NC(=O)c2ccc(N(C(=O)CCl)C(C(=O)NCc3ccccc3)c3ccc(Cl)c(Cl)c3)cc2)cc1)NO (stereo not shown) [Compound 1a] | 34 ± 6 | EC50 antiproliferative activity [1, 6]: diminished antiproliferative activity
2 | O=C(CCCCCCNC(=O)c1ccc(NC(=O)[C@H]2CC[C@H](CN(C(=O)CCl)C(C(=O)NCc3ccccc3)c3ccc(Cl)c(Cl)c3)CC2)cc1)NO (stereo partly shown) [Compound 1b] | 18 ± 3 | EC50 antiproliferative activity [1, 6]: diminished antiproliferative activity
3 | O=C(CCCCCCNC(=O)c1ccc(NC(=O)CCOCCOCCN(C(=O)CCl)C(C(=O)NCc2ccccc2)c2ccc(Cl)c(Cl)c2)cc1)NO (stereo not shown) [Compound 1c] | 6.2 ± 0.7 | –
4 | O=C(CCCCCCNC(=O)c1cnc(N(c2ccccc2)c2ccccc2)nc1)NO [Ricolinostat, ricolinostat, reference compound] | – | effect on cell cycle phases [3]: stronger effects on the different phases of the cell cycle; reduction of colonies (clonogenic growth) [4]: less pronounced and not significant; EC50 ([1]; read-out: EC50 MM.1S): 3 ± 0.6 µM

Further lines, with some results ahead:

Row | EC50 [1, 5] [µM] | SMILES | further results
5 | 6.9 ± 0.6 | O=C(CCCCCCNC(=O)c1ccc(NC(=O)CCOCCOCCOCCN(C(=O)CCl)C(C(=O)NCc2ccccc2)c2ccc(Cl)c(Cl)c2)cc1)NO (stereo not shown) [Compound 1d] | –
6 | 7.3 ± 0.5 | O=C(CCCCCCNC(=O)c1ccc(NC(=O)CCOCCOCCOCCOCCN(C(=O)CCl)C(C(=O)NCc2ccccc2)c2ccc(Cl)c(Cl)c2)cc1)NO (stereo not shown) [Compound 1e] | reduction of HDAC1 levels [2]: 51%
7 | 19 ± 3 | O=C(CCCCCCNC(=O)c1ccc(NC(=O)CN(C(=O)CCl)C(C(=O)NCc2ccccc2)c2ccc(Cl)c(Cl)c2)cc1)NO (stereo not shown) [Compound 1f] | –
8 | 16 ± 2 | O=C(CCCCCCNC(=O)c1ccc(NC(=O)CCCN(C(=O)CCl)C(C(=O)NCc2ccccc2)c2ccc(Cl)c(Cl)c2)cc1)NO (stereo not shown) [Compound 1g] | –
9 | 18 ± 7 | O=C(CCCCCCNC(=O)c1ccc(NC(=O)CCCCCN(C(=O)CCl)C(C(=O)NCc2ccccc2)c2ccc(Cl)c(Cl)c2)cc1)NO (stereo not shown) [Compound 1h] | reduction of HDAC1 levels [2]: did not reduce HDAC1 levels
10 | 12 ± 2 | O=C(CCCCCCNC(=O)c1ccc(NC(=O)CCCCCCCN(C(=O)CCl)C(C(=O)NCc2ccccc2)c2ccc(Cl)c(Cl)c2)cc1)NO (stereo not shown) [Compound 1i] | –
